This note sets out measurements from patent US20260191968A1, “PROTAC DEGRADERS OF MLLT1 AND/OR MLLT3” (DARK BLUE THERAPEUTICS LTD, priority 2024, published 2026).

The target in assay [1] is T1, MLLT1 (Homo sapiens, UniProt Q03111).
T1 construct: host or cells: MV4-11
T1 sequence (Q03111 1-559): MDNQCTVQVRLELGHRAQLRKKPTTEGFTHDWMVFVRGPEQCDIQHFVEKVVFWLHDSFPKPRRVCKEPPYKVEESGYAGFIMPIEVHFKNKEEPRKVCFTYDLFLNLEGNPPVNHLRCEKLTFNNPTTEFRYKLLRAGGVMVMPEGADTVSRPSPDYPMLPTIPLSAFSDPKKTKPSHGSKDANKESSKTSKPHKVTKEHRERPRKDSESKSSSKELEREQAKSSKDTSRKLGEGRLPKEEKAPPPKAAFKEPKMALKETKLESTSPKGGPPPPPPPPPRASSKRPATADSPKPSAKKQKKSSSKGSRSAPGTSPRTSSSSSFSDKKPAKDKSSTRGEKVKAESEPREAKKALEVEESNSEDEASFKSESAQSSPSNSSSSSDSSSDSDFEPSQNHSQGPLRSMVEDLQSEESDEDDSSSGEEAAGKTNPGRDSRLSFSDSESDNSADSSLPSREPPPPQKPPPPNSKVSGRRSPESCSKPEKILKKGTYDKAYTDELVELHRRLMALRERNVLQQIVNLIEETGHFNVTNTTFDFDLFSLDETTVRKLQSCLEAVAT
Briefly: MLLT1 degradation assay in MV4-11 cells (JESS chemiluminescent detection), three concentrations, 24 h. It is filed as cell-based. The note with it: with respect to DMSO control. Put shortly: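 Read-out is % MLLT1 degradation versus DMSO, from band peak areas on a JESS chemiluminescent system. Cells (MV4-11) were exposed for 24 h at 37° C to three compound levels, 10, 100 and 1000 nM, in 0.1% DMSO.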

Assay [2] deals with MV4-11 cells. Briefly: MV4-11 cellular proliferative assay, Assay Format B (CTG 2.0, 168 h). The note with it: Homo sapiens, 168 h (7 days), CTG 2.0, read-out: IC50 (MV4-11 cellular proliferative assay, Assay format B). Format: cell-based. How it is done:
MV4-11 cells at a confluency of ~50-80% was used for cell growth assay. 600 cells/well in a 384-well opaque cell culture plate (6007680; Perkin Elmer) were seeded in 40 μL of complete medium (IMDM+10% FBS+1X Penicillin-Streptomycin). Cells were incubated overnight at 37° C., 5% CO2. 10 mM DMSO stocks were prepared, cells were treated with 10 concentrations of test compounds starting from 1 uM or 100 nM, 3-fold dilution in 10 uL (5×concentration) of complete medium. Final DMSO concentration was 0.3%. Culture plates were centrifuged at 40×g, 30s. Cells were incubated with compounds for 168 h (7 days). After 7 days, 20 uL CTG 2.0 reagent (G9242; Promega) was added per well and luminescence reading was taken in Envision Xcite 2105 multimode plate reader. Data was analyzed in GraphPad Prism 10.0 and data was shown as % viability with respect to DMSO control and dose-response curves were generated using four parameter logistic regression. Assay quality was determined by z-factor calculation using positive and negative controls.

Some results are limits rather than exact numbers.

A word on the IC50: it is the point on the concentration scale where inhibition reaches its midpoint. For the compound `Cc1cc(C2CCN(c3ccc(C(=O)Nc4cc5[nH]c([C@H]6CCCN6C)cc5cn4)cn3)CC2)ccc1-c1cccc2c1CN(C1CCC(=O)NC1=O)C2=O` (stereo partly drawn) [Example 99, 6-(4-(4-(2-(2,6-dioxopiperidin-3-yl)-1-oxoisoindolin-4-yl)-3-methylphenyl)piperidin-1-yl)-N-(2-((R)-1-methylpyrrolidin-2-yl)-1H-pyrrolo[3,2-c]pyridin-6-yl)nicotinamide], in assay [1], the “MLLT1% Degradation @ 0.01 μM” value is “B (Category B: 50% ≤ B < 75% degradation)”, the “MLLT1% Degradation @ 0.1 μM” value is on record as “A (Category A: A ≥ 75% degradation)” and the “MLLT1% Degradation @ 1 μM” value is recorded as “A (Category A: A ≥ 75% degradation)”. In addition, the IC50 in assay [2] is at most 100 nM.

For the compound `CN1CCC[C@@H]1c1cc2cnc(NC(=O)c3ccc(N4CCN(CCC5CCN(c6cccc7c6CN(C6CCC(=O)NC6=O)C7=O)CC5)CC4)nc3)cc2[nH]1` (stereo partly drawn) [Example 193, 6-(4-(2-(1-(2-(2,6-dioxopiperidin-3-yl)-1-oxoisoindolin-4-yl)piperidin-4-yl)ethyl)piperazin-1-yl)-N-(2-((R)-1-methylpyrrolidin-2-yl)-1H-pyrrolo[3,2-c]pyridin-6-yl)nicotinamide], in assay [1], the “MLLT1% Degradation @ 0.01 μM” value is listed as “A (Category A: A ≥ 75% degradation)”, the “MLLT1% Degradation @ 0.1 μM” value is on record as “A (Category A: A ≥ 75% degradation)” and the “MLLT1% Degradation @ 1 μM” value was “B (Category B: 50% ≤ B < 75% degradation)”. Further, in assay [2], the concentration for half-maximal inhibition (IC50) was at most 100 nM.

For the compound `CN1CCC[C@@H]1c1cc2cnc(NC(=O)c3ccc(CCCCC#Cc4cccc(N5CCC(=O)NC5=O)n4)cc3)cc2[nH]1` [Example 9, (R)-4-(6-(6-(2,4-dioxotetrahydropyrimidin-1(2H)-yl)pyridin-2-yl)hex-5-yn-1-yl)-N-(2-(1-methylpyrrolidin-2-yl)-1H-pyrrolo[3,2-c]pyridin-6-yl)benzamide], in assay [1], the “MLLT1% Degradation @ 0.01 μM” value was “A (Category A: A ≥ 75% degradation)”, the “MLLT1% Degradation @ 0.1 μM” value is recorded as “A (Category A: A ≥ 75% degradation)” and the “MLLT1% Degradation @ 1 μM” value is given as “A (Category A: A ≥ 75% degradation)”. In assay [2], the concentration for half-maximal inhibition (IC50) was at most 100 nM.

`CN1CCC[C@@H]1c1cc2cnc(NC(=O)c3ccc(CCCC#Cc4cccc5c4CN([C@H]4CCC(=O)NC4=O)C5=O)cc3)cc2[nH]1` (relative stereo) [Example 102, 4-(5-(2-((rel-S)-2,6-dioxopiperidin-3-yl)-1-oxoisoindolin-4-yl)pent-4-yn-1-yl)-N-(2-((R)-1-methylpyrrolidin-2-yl)-1H-pyrrolo[3,2-c]pyridin-6-yl)benzamide]: in assay [1], the “MLLT1% Degradation @ 0.01 μM” value was “A (Category A: A ≥ 75% degradation)”, the “MLLT1% Degradation @ 0.1 μM” value is given as “A (Category A: A ≥ 75% degradation)” and the “MLLT1% Degradation @ 1 μM” value is given as “A (Category A: A ≥ 75% degradation)”. Further, in assay [2], the IC50 was at most 100 nM.

With `CN1CCC[C@@H]1c1cc2cnc(NC(=O)c3ccc(N4CCC(CC#Cc5cccc6c5CN(C5CCC(=O)NC5=O)C6=O)CC4)nn3)cc2[nH]1` (stereo partly drawn) [Example 153, 6-(4-(3-(2-(2,6-dioxopiperidin-3-yl)-1-oxoisoindolin-4-yl)prop-2-yn-1-yl)piperidin-1-yl)-N-(2-((R)-1-methylpyrrolidin-2-yl)-1H-pyrrolo[3,2-c]pyridin-6-yl)pyridazine-3-carboxamide], in assay [1], the “MLLT1% Degradation @ 0.01 μM” value was “A (Category A: A ≥ 75% degradation)”, the “MLLT1% Degradation @ 0.1 μM” value is given as “A (Category A: A ≥ 75% degradation)” and the “MLLT1% Degradation @ 1 μM” value is listed as “A (Category A: A ≥ 75% degradation)”. The IC50 in assay [2] is at most 100 nM.

Regarding `CN1CCC[C@@H]1c1cc2cnc(NC(=O)c3ccc(OCCc4ccc(-c5cccc6c5CN(C5CCC(=O)NC5=O)C6=O)cc4)cc3F)cc2[nH]1` (stereo partly drawn) [Example 207, 4-(4-(2-(2,6-dioxopiperidin-3-yl)-1-oxoisoindolin-4-yl)phenethoxy)-2-fluoro-N-(2-((R)-1-methylpyrrolidin-2-yl)-1H-pyrrolo[3,2-c]pyridin-6-yl)benzamide], in assay [1], the “MLLT1% Degradation @ 0.01 μM” value is on record as “A (Category A: A ≥ 75% degradation)”, the “MLLT1% Degradation @ 0.1 μM” value is reported as “A (Category A: A ≥ 75% degradation)” and the “MLLT1% Degradation @ 1 μM” value is reported as “A (Category A: A ≥ 75% degradation)”. The IC50 in assay [2] is at most 100 nM.

On to `CN1CCC[C@@H]1c1cc2cnc(NC(=O)c3ccc(CCCCC#Cc4cccc5c4CN([C@H]4CCC(=O)NC4=O)C5=O)cc3)cc2[nH]1` (relative stereo) [Example 104, 4-(6-(2-((rel-S)-2,6-dioxopiperidin-3-yl)-1-oxoisoindolin-4-yl)hex-5-yn-1-yl)-N-(2-((R)-1-methylpyrrolidin-2-yl)-1H-pyrrolo[3,2-c]pyridin-6-yl)benzamide], for which the IC50 in assay [2] is at most 100 nM.

For `CN1CCC[C@@H]1c1cc2cnc(NC(=O)c3ccc(CCCCC#Cc4cccc5c4CN([C@@H]4CCC(=O)NC4=O)C5=O)cc3)cc2[nH]1` (relative stereo) [Example 105, 4-(6-(2-((rel-R)-2,6-dioxopiperidin-3-yl)-1-oxoisoindolin-4-yl)hex-5-yn-1-yl)-N-(2-((R)-1-methylpyrrolidin-2-yl)-1H-pyrrolo[3,2-c]pyridin-6-yl)benzamide], in assay [2], the half-maximal inhibitory concentration (IC50) is at most 100 nM.

For `CN1CCC[C@@H]1c1cc2cnc(NC(=O)c3ccc(N4CCN(CC5CCN(c6cccc7c6C(=O)N(C6CCC(=O)NC6=O)C7=O)CC5)CC4)nc3)cc2[nH]1` (stereo partly drawn) [Example 5, 6-(4-((1-(2-(2,6-dioxopiperidin-3-yl)-1,3-dioxoisoindolin-4-yl)piperidin-4-yl)methyl)piperazin-1-yl)-N-(2-((R)-1-methylpyrrolidin-2-yl)-1H-pyrrolo[3,2-c]pyridin-6-yl)nicotinamide], in assay [1], the “MLLT1% Degradation @ 0.01 μM” value was “B (Category B: 50% ≤ B < 75% degradation)”, the “MLLT1% Degradation @ 0.1 μM” value is on record as “A (Category A: A ≥ 75% degradation)” and the “MLLT1% Degradation @ 1 μM” value is given as “A (Category A: A ≥ 75% degradation)”.

On to `CN1CCC[C@@H]1c1cc2cnc(NC(=O)c3ccc(CCC#Cc4cccc5c4CN(C4CCC(=O)NC4=O)C5=O)cn3)cc2[nH]1` (stereo partly drawn) [Example 49, 5-(4-(2-(2,6-dioxopiperidin-3-yl)-1-oxoisoindolin-4-yl)but-3-yn-1-yl)-N-(2-((R)-1-methylpyrrolidin-2-yl)-1H-pyrrolo[3,2-c]pyridin-6-yl)picolinamide], for which, in assay [1], the “MLLT1% Degradation @ 0.01 μM” value is “D (Category D: D < 25% degradation)”, the “MLLT1% Degradation @ 0.1 μM” value is given as “D (Category D: D < 25% degradation)” and the “MLLT1% Degradation @ 1 μM” value is on record as “C (Category C: 25% ≤ C < 50% degradation)”.

Take `CN1CCC[C@@H]1c1cc2cnc(NC(=O)c3ccc(N4CCN(C(=O)CCC5CCN(c6cccc7c6CN(C6CCC(=O)NC6=O)C7=O)CC5)CC4)cc3)cc2[nH]1` (stereo partly drawn) [Example 189, 4-(4-(3-(1-(2-(2,6-dioxopiperidin-3-yl)-1-oxoisoindolin-4-yl)piperidin-4-yl)propanoyl)piperazin-1-yl)-N-(2-((R)-1-methylpyrrolidin-2-yl)-1H-pyrrolo[3,2-c]pyridin-6-yl)benzamide]: in assay [1], the “MLLT1% Degradation @ 0.01 μM” value was “B (Category B: 50% ≤ B < 75% degradation)”, the “MLLT1% Degradation @ 0.1 μM” value is “B (Category B: 50% ≤ B < 75% degradation)” and the “MLLT1% Degradation @ 1 μM” value was “C (Category C: 25% ≤ C < 50% degradation)”.

For `CN1CCC[C@@H]1c1cc2cnc(NC(=O)c3ccc(N4CCC(C#Cc5cccc6c5CN(C5CCC(=O)NC5=O)C6=O)CC4)nn3)cc2[nH]1` (stereo partly drawn) [Example 185, 6-(4-((2-(2,6-dioxopiperidin-3-yl)-1-oxoisoindolin-4-yl)ethynyl)piperidin-1-yl)-N-(2-((R)-1-methylpyrrolidin-2-yl)-1H-pyrrolo[3,2-c]pyridin-6-yl)pyridazine-3-carboxamide], in assay [1], the “MLLT1% Degradation @ 0.01 μM” value is reported as “C (Category C: 25% ≤ C < 50% degradation)”, the “MLLT1% Degradation @ 0.1 μM” value was “B (Category B: 50% ≤ B < 75% degradation)” and the “MLLT1% Degradation @ 1 μM” value is reported as “B (Category B: 50% ≤ B < 75% degradation)”.
